Data on 7 compounds can be found in PubChem BioAssay (NCI).

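Test compounds were applied to cells in 96-well plates for 48 hours at 5 doses. GI50 is the concentration that inhibits growth by half. TGI denotes the concentration required for complete inhibition of growth.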

Test systems include A498 renal; BT-549 breast; DU-145 prostate; HCT-116 colon; HOP-92 NSCLC; MDA-MB-231 breast; NCI-H226 lung; SN12C renal; SR leukemia; RXF 393 renal.
Holding throughout (assay): DTP human tumour cell line panel, 48 h

For orientation: GI50 means the concentration giving 50% growth inhibition. Usually TGI stands for the concentration giving total growth inhibition. Read a high TGI as less potent growth arrest.

For the compound `O=C(c1cccs1)c1c(C(F)(F)F)n([O-])c2ccccc2[n+]1=O`, the GI50 was 0.79 µM in the assay with A498 renal; 0.908 µM with BT-549 breast; 0.695 µM in the assay with DU-145 prostate; 0.41 µM in the assay with HCT-116 colon; 0.99 µM in the assay with HOP-92 NSCLC; 0.639 µM in the assay with MDA-MB-231 breast. Moreover, the GI50 in the assay with NCI-H226 lung was 1.05 µM; in the assay on SN12C renal, 0.737 µM; in the assay on SR leukemia, 2.56 µM. The TGI with A498 renal was determined as 2.4 µM; in the assay with BT-549 breast, 2.37 µM; with DU-145 prostate, 1.34 µM; in the assay on HCT-116 colon it was 1.07 µM; with HOP-92 NSCLC it was 2.28 µM; with MDA-MB-231 breast it was 1.53 µM. For the same compound, the TGI with NCI-H226 lung worked out at 3.12 µM; in the assay with SN12C renal, 1.67 µM; with SR leukemia, 6.03 µM.
On to `C=C1C(O)C2CCC(C)(C)C(=O)C2=C(CC(C)C)C12CC2` (centres undefined), for which the GI50 with BT-549 breast was > 100 µM; in the assay with DU-145 prostate, 84.9 µM; in the assay with HCT-116 colon it was 37.2 µM; in the assay with HOP-92 NSCLC, 15 µM; in the assay with MDA-MB-231 breast, 91.8 µM; with NCI-H226 lung, 43.5 µM. The values for the GI50 with RXF 393 renal, in the assay with SN12C renal and in the assay on SR leukemia were 53.1 µM, 63.8 µM and 34 µM, respectively. Further, the TGI in the assay on BT-549 breast was > 100 µM; with DU-145 prostate, > 100 µM; in the assay with HCT-116 colon it was > 100 µM; in the assay on HOP-92 NSCLC, 70.3 µM; in the assay on MDA-MB-231 breast it was > 100 µM; with NCI-H226 lung it was > 100 µM. Besides, the TGI in the assay with RXF 393 renal, in the assay with SN12C renal and in the assay on SR leukemia was > 100 µM each time.
Turning to `N#Cc1c(-c2cccs2)c2c(=S)[nH]c(=S)[nH]c2[nH]c1=S`, the GI50 with BT-549 breast is 23.5 µM; with DU-145 prostate, 24 µM; in the assay on HCT-116 colon, 49.5 µM; in the assay with HOP-92 NSCLC, 89.4 µM; in the assay with MDA-MB-231 breast it was 39 µM; in the assay with NCI-H226 lung, 37.2 µM. The figures for the GI50 with RXF 393 renal, in the assay on SN12C renal and in the assay with SR leukemia were 37.1 µM, 43 µM and 29.3 µM, respectively. The TGI with BT-549 breast was 56.2 µM; in the assay with DU-145 prostate it was 78.7 µM; in the assay with HCT-116 colon it was > 100 µM; with HOP-92 NSCLC, > 100 µM; in the assay with MDA-MB-231 breast, > 100 µM; in the assay on NCI-H226 lung, > 100 µM. The TGI in the assay with RXF 393 renal, with SN12C renal and in the assay on SR leukemia was > 100 µM each time.
Turning to `CSc1nc(SC)c2c(CN=[N+]=[N-])c(Br)n(Cc3ccccc3)c2n1`, the TGI in the assay with A498 renal is > 100 µM; in the assay on BT-549 breast, > 100 µM; with DU-145 prostate, > 100 µM; in the assay on HCT-116 colon, > 100 µM; with HOP-92 NSCLC, 83.8 µM; in the assay with MDA-MB-231 breast it was > 100 µM. Besides, the TGI with NCI-H226 lung, in the assay on SN12C renal and with SR leukemia was > 100 µM throughout.
As to `CCC(C)C1NC(=O)c2nc(oc2-c2ccccc2)-c2csc(n2)-c2csc(n2)-c2nc(oc2C)-c2coc(n2)CNC(=O)C(C(C)CC)NC1=O` (centres undefined), the GI50 was 0.16 µM in the assay with A498 renal; 0.0659 µM in the assay on BT-549 breast; 0.0218 µM in the assay with DU-145 prostate; 0.0198 µM in the assay on HOP-92 NSCLC; 0.035 µM with MDA-MB-231 breast; 0.0334 µM with RXF 393 renal. Moreover, the GI50 in the assay on SR leukemia was 0.0327 µM. The TGI in the assay with A498 renal was found to be 0.343 µM; in the assay on BT-549 breast, 0.204 µM; in the assay on DU-145 prostate, 0.0658 µM; in the assay on HCT-116 colon, 0.0335 µM; with HOP-92 NSCLC, 0.134 µM; in the assay on MDA-MB-231 breast, 0.135 µM. For the same compound, the TGI in the assay with RXF 393 renal was 0.166 µM; with SR leukemia, 0.212 µM.
On to `CNC(=O)c1ccccc1CC1(O)c2ccccc2Oc2ccccc21`, for which the GI50 in the assay on A498 renal is 4.54 µM; in the assay on BT-549 breast, 25.9 µM; in the assay on DU-145 prostate, 22 µM; with HCT-116 colon, 21.8 µM; with HOP-92 NSCLC, 7.52 µM; with MDA-MB-231 breast, 15 µM. For the same compound, the figures for the GI50 in the assay with NCI-H226 lung, in the assay with SN12C renal and in the assay with SR leukemia were 11.3 µM, 26 µM and 6.61 µM, respectively. Besides, the TGI in the assay on A498 renal was 37.5 µM; in the assay on BT-549 breast it was > 100 µM; in the assay with DU-145 prostate, 56.5 µM; in the assay with HCT-116 colon it was > 100 µM; in the assay on HOP-92 NSCLC it was 44.4 µM; in the assay with MDA-MB-231 breast, 83.3 µM. Also, the TGI is 34.8 µM with NCI-H226 lung, > 100 µM in the assay with SN12C renal and 86.4 µM with SR leukemia.
Turning to `COc1cc2c3c(cccc3c1)C(=O)N(CCN1CCCC1)C2=O`, the GI50 with A498 renal is 1.96 µM; in the assay with BT-549 breast it was 2.95 µM; with DU-145 prostate, 2.13 µM; in the assay with HCT-116 colon, 0.753 µM; with HOP-92 NSCLC it was 1.55 µM; in the assay on MDA-MB-231 breast it was 2.46 µM. The results for the GI50 with RXF 393 renal, in the assay on SN12C renal and in the assay with SR leukemia were 1.41 µM, 2.41 µM and 1.47 µM, respectively. Besides, the concentration for total growth inhibition (TGI) in the assay with A498 renal was 3.69 µM; in the assay on BT-549 breast, 8.33 µM; in the assay with DU-145 prostate, 5.97 µM; in the assay on HCT-116 colon, > 100 µM; in the assay with HOP-92 NSCLC, 4.98 µM; with MDA-MB-231 breast it was 10.2 µM. In addition, the figures for the TGI with RXF 393 renal, with SN12C renal and with SR leukemia were 3.54 µM, 78.5 µM and > 100 µM, respectively.
